From patent US7727980B2, “Tricyclic androgen receptor modulator compounds and methods” (priority 2001, dated 2010)
Read-outs that look alike come from different tables or passages of the source.

Experiments:
human AR [1] = target: T1, human AR (Homo sapiens, UniProt P10275); experiment: AR whole cell competitive binding assay (3H-DHT), transfected COS-1 cells; parameters: expressed in transfected cells; transient transfection with pRShAR; details: COS-1 cells, 1 nM 3H-DHT, Cheng-Prusoff from IC50
T1 sequence (P10275 1-920): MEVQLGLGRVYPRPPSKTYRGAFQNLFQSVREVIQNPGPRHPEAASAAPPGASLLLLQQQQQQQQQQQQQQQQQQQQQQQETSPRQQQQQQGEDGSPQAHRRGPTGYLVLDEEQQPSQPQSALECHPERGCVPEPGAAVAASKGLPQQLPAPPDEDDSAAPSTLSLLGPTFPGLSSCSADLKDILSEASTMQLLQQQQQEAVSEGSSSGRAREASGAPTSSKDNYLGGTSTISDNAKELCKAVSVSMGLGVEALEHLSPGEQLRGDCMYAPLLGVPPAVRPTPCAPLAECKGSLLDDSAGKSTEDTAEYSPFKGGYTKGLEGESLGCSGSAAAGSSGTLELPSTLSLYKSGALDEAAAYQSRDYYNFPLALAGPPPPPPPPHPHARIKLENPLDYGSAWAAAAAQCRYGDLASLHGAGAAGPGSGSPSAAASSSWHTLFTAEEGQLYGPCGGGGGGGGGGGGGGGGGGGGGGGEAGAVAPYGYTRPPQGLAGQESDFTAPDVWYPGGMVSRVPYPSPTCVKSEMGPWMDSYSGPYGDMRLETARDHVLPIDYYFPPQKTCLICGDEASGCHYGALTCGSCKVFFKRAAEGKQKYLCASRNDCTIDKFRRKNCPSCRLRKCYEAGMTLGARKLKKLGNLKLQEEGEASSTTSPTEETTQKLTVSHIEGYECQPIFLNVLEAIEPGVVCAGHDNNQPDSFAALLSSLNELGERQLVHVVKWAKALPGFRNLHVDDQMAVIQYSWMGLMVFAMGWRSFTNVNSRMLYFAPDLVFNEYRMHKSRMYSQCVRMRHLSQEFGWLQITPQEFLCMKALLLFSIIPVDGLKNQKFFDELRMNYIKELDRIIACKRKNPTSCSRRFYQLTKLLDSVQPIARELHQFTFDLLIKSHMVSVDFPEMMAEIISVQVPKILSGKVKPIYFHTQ
Procedure: AR Binding: For the whole cell binding assay, COS-1 cells in 96-well microtiter plates containing DMEM-10% FBS were transfected as described above with the following plasmid DNA: pRShAR (2 ng/well), pRS-β-Gal (50 ng/well) and pGEM (48 ng/well). Six hours after transfection, media was removed, the cells were washed with PBS and fresh media was added. The next day, the media was changed to DMEM-serum free to remove any endogenous ligand that might be complexed with the receptor in the cells.
Three replicates were used for each sample. […] The remaining media was removed, the cells were washed three times with PBS to remove unbound ligand and cells were lysed with a Triton X-100-based buffer.
For the saturation analyses, the difference between the total binding and the nonspecific binding, normalized by the β-Gal rate, was defined as specific binding. […] The Ki values were determined by application of the Cheng-Prusoff equation to the IC50 values, where: […]
After correcting for non-specific binding, IC50 values were determined. […] The IC50 value was determined graphically from a log-logit plot of the data. The Ki values were determined by application of the Cheng-Prusoff equation to the IC50 values, the labeled ligand concentration and the Kd of the labeled ligand.

human AR [2] = target: T1, human AR; experiment: Co-transfection assay, AR agonist activity, CV-1 cells; format: cell-based; parameters: expressed in transfected cells; host or cells: CV-1 cells (African green monkey kidney fibroblasts), transient transfection with pRShAR; details: for AR Agonist CV-1 Cells Efficacy (%): percent maximal response relative to reference agonist DHT
Excerpt: (§1) The co-transfection assay provides a method for identifying functional agonists and partial agonists which mimic, or antagonists which inhibit, the effect of native hormones and quantifying their activity for responsive IR proteins. In this regard, the co-transfection assay mimics an in vivo system in the laboratory. Importantly, activity in the co-transfection assay correlates very well with known in vivo activity, such that the co-transfection assay functions as a qualitative and quantitative predictor of a tested compounds in vivo pharmacology. See, e.g., T. Berger et al. 41 J. Steroid Biochem. Molec.
(§2) In the co-transfection assay, a cloned cDNA for an IR (e.g., human PR, AR or GR) under the control of a constitutive promoter (e.g., the SV 40 promoter) is introduced by transfection (a procedure to induce cells to take up foreign genes) into a background cell substantially devoid of endogenous IRs. This introduced gene directs the recipient cells to make the IR protein of interest. A second gene is also introduced (co-transfected) into the same cells in conjunction with the IR gene. This second gene, comprising the cDNA for a reporter protein, such as firefly luciferase (LUC), controlled by an appropriate hormone responsive promoter containing a hormone response element (HRE). This reporter plasmid functions as a reporter for the transcription-modulating activity of the target IR. Thus, the reporter acts as a surrogate for the products (mRNA then protein) normally expressed by a gene under control of the target receptor and its native hormone.
(§3) The co-transfection assay can detect small molecule agonists or antagonists of target IRs. Exposing the transfected cells to an agonist ligand compound increases reporter activity in the transfected cells. This activity can be conveniently measured, e.g., by increasing luciferase production, which reflects compound-dependent, IR-mediated increases in reporter transcription. […] To detect antagonists, the co-transfection assay is carried out in the presence of a constant concentration of an agonist to the target IR (e.g., progesterone for PR) known to induce a defined reporter signal. Increasing concentrations of a suspected antagonist will decrease the reporter signal (e.g., luciferase production). The co-transfection assay is therefore useful to detect both agonists and antagonists of specific IRs. Furthermore, it determines not only whether a compound interacts with a particular IR, but whether this interaction mimics (agonizes) or blocks (antagonizes) the effects of the native regulatory molecules on target gene expression, as well as the specificity and strength of this interaction.
(§4) CV-1 cells (African green monkey kidney fibroblasts) were cultured in the presence of Dulbecco's Modified Eagle Medium (DMEM) supplemented with 10% charcoal resin-stripped fetal bovine serum then transferred to 96-well microtiter plates one day prior to transfection.
(§5) The reporter plasmid, MTV-LUC, contains the cDNA for firefly luciferase (LUC) under control of the mouse mammary tumor virus (MTV) long terminal repeat, a conditional promoter containing an androgen response element. See e.g., Berger et al. supra. In addition, pRS-β-Gal, coding for constitutive expression of E. coli β-galactosidase (β-Gal), was included as an internal control for evaluation of transfection efficiency and compound toxicity.
(§6) Six hours after transfection, media was removed and the cells were washed with phosphate-buffered saline (PBS). […] Three to four replicates were used for each sample. Transfections and subsequent procedures were performed on a Biomek 1000 automated laboratory work station.
(§7) After 40 hours, the cells were washed with PBS, lysed with a Triton X-100-based buffer and assayed for LUC and β-Gal activities using a luminometer or spectrophotometer, respectively. For each replicate, the normalized response (NR) was calculated as: LUC response/β-Gal rate • where β-Gal rate=β-Gal·1×10^−5/β-Gal incubation time.

human AR [3] = target: T1, human AR; experiment: Co-transfection assay, AR antagonist activity in presence of DHT, CV-1 cells; format: cell-based; parameters: expressed in transfected cells; host or cells: CV-1 cells (African green monkey kidney fibroblasts), transient transfection with pRShAR; details: for AR Antagonist CV-1 Cells Efficacy (%): percent maximal inhibition, DHT at its EC50 concentration
Excerpt: as §1, §2, §3, §4, §5, §6, §7

[4] = agonist potency or EC50, read-out: AR Agonist CV-1 Cells Potency
[5] = CV-1 cells, antagonist potency or IC50, DHT at its EC50 concentration, read-out: AR Antagonist CV-1 Cells Potency
[6] = AR Agonist CV-1 Cells Potency (nM), agonist potency or EC50
[7] = AR Antagonist CV-1 Cells Potency (nM), CV-1 cells, antagonist potency or IC50, DHT at its EC50 concentration

(+)-6,7-Dihydro-6-ethyl-4-trifluoromethyl-8H-pyrano[3,2-g]quinolin-2(1H)-one [Compound 218]
Ki (human AR [1]; read-out: AR Binding Ki): 4.1 nM
EC50 (human AR [2]; [4]): 10 nM
AR Agonist CV-1 Cells Efficacy (%) (human AR [2]): 82%
IC50 (human AR [3]; [5]): > 10000 nM
AR Antagonist CV-1 Cells Efficacy (%) (human AR [3]; CV-1 cells): na (na = not active (i.e. efficacy of <20 and potency of >10,000))

5,6-Dimethyl-7-(2,2,2-trifluoroethyl)-4-trifluoromethyl-7H-pyrrolo[3,2-f]quinolin-2(1H)-one [Compound 150]
Ki (human AR [1]; read-out: AR Binding Ki): 4 nM
EC50 (human AR [2]; [4]): 2.1 nM
AR Agonist CV-1 Cells Efficacy (%) (human AR [2]): 95%
IC50 (human AR [3]; [5]): > 10000 nM
AR Antagonist CV-1 Cells Efficacy (%) (human AR [3]; CV-1 cells): na (na = not active (i.e. efficacy of <20 and potency of >10,000))

CC1CCc2cc3[nH]c(=O)cc(C(F)(F)F)c3cc2N1CC(F)(F)F (stereo not drawn) [Compound 197, 4-Trifluoromethyl-7-methyl-6-(2,2,2-trifluoroethyl)-6,7,8,9-tetrahydropyrido[2,3-g]quinolin-2(1H)-one]
Ki (human AR [1]; AR Binding Ki (nM)): 79 nM
EC50 (human AR [2]; [6]): 12 nM
AR Agonist CV-1 Cells Efficacy (%) (human AR [2]): 66%
IC50 (human AR [3]; [7]): > 10000 nM
AR Antagonist CV-1 Cells Efficacy (%) (human AR [3]; CV-1 cells): na (na = not active (i.e. efficacy of <20 and potency of >10,000))

CCC1CCOc2cc3c(cc21)c(C(F)(F)F)cc(=O)n3C (racemic) [Compound 220, (±)-6,7-Dihydro-6-ethyl-4-trifluoromethyl-1-methyl-8H-pyrano[3,2-g]quinolin-2(1H)-one]
EC50 (human AR [2]; [6]): > 10000 nM
AR Agonist CV-1 Cells Efficacy (%) (human AR [2]): na (na = not active (i.e. efficacy of <20 and potency of >10,000))
IC50 (human AR [3]; [7]): 23 nM
AR Antagonist CV-1 Cells Efficacy (%) (human AR [3]; CV-1 cells): 67%

O=c1cc(C(F)(F)F)c2c3c(ccc2[nH]1)N(Cc1ccsc1)C1CCCC31 (racemic) [Compound 127, (±)-4c,5,6,7,7a(cis),8-Hexahydro-8-(3-thiophenemethyl)-4-trifluoromethyl-cyclopentano[g]pyrrolo[3,2-f]quinolin-2(1H)-one]
Ki (human AR [1]; AR Binding Ki (nM)): 6.3 nM
EC50 (human AR [2]; [6]): 25 nM
AR Agonist CV-1 Cells Efficacy (%) (human AR [2]): 66%
IC50 (human AR [3]; [7]): > 10000 nM
AR Antagonist CV-1 Cells Efficacy (%) (human AR [3]; CV-1 cells): na (na = not active (i.e. efficacy of <20 and potency of >10,000))

6,7-Dihydro-8,8,10-trimethyl-4-(trifluoromethyl)-8H-pyrano[3,2-g]quinolin-2(1H)-one [Compound 206]
EC50 (human AR [2]; [4]): > 10000 nM
AR Agonist CV-1 Cells Efficacy (%) (human AR [2]): na (na = not active (i.e. efficacy of <20 and potency of >10,000))
IC50 (human AR [3]; [5]): 175 nM
AR Antagonist CV-1 Cells Efficacy (%) (human AR [3]; CV-1 cells): 90%

6,7-Dihydro-8,8-dimethyl-4-(trifluoromethyl)-8H-pyrano[3,2-g]quinolin-2(1H)-one [Compound 202]
EC50 (human AR [2]; [4]): > 10000 nM
AR Agonist CV-1 Cells Efficacy (%) (human AR [2]): na (na = not active (i.e. efficacy of <20 and potency of >10,000))
IC50 (human AR [3]; [5]): 146 nM
AR Antagonist CV-1 Cells Efficacy (%) (human AR [3]; CV-1 cells): 92%

CC(C)C1c2c(ccc3[nH]c(=O)cc(C(F)(F)F)c23)N(CC(F)(F)F)C1C (racemic) [Compound 144, (±)-5,6-cis-Dihydro-5-isopropyl-6-methyl-7-(2,2,2-trifluoroethyl)-4-trifluoromethyl-7H-pyrrolo[3,2-f]quinolin-2(1H)-one]
EC50 (human AR [2]; [6]): > 10000 nM
AR Agonist CV-1 Cells Efficacy (%) (human AR [2]): na (na = not active (i.e. efficacy of <20 and potency of >10,000))
IC50 (human AR [3]; [7]): 23 nM
AR Antagonist CV-1 Cells Efficacy (%) (human AR [3]; CV-1 cells): 53%

(−)-6,7-Dihydro-6-ethyl-4-trifluoromethyl-8H-pyrano[3,2-g]quinolin-2(1H)-one [Compound 217]
EC50 (human AR [2]; [4]): > 10000 nM
AR Agonist CV-1 Cells Efficacy (%) (human AR [2]): na (na = not active (i.e. efficacy of <20 and potency of >10,000))
IC50 (human AR [3]; [5]): 64 nM
AR Antagonist CV-1 Cells Efficacy (%) (human AR [3]; CV-1 cells): 85%

6-Ethyl-5-methyl-7-(2,2,2-trifluoroethyl)-4-trifluoromethyl-7H-pyrrolo[3,2-f]quinolin-2(1H)-one [Compound 153]
EC50 (human AR [2]; [4]): 7.6 nM
AR Agonist CV-1 Cells Efficacy (%) (human AR [2]): 76%
IC50 (human AR [3]; [5]): > 10000 nM
AR Antagonist CV-1 Cells Efficacy (%) (human AR [3]; CV-1 cells): na (na = not active (i.e. efficacy of <20 and potency of >10,000))

CC1CC(C)(C)N(CC(F)(F)F)c2ccc3[nH]c(=O)ccc3c21 (stereo not drawn) [Compound 182, 8-(2,2,2-Trifluoroethyl)-5,6,7,8-tetrahydro-5,7,7-trimethylpyrido[3,2-f]quinolin-2(1H)-one]
AR Agonist CV-1 Cells Efficacy (%) (human AR [2]): na (na = not active (i.e. efficacy of <20 and potency of >10,000))
IC50 (human AR [3]): 13 nM
AR Antagonist CV-1 Cells Efficacy (%) (human AR [3]; CV-1 cells): 81%

CCc1c(C)c2cc3[nH]c(=O)cc(C(F)(F)F)c3cc2n1CC(F)(F)F [Compound 163, 7-Ethyl-8-methyl-6-(2,2,2-trifluoroethyl)-4-trifluoromethyl-6H-pyrrolo[2,3-g]quinolin-2(1H)-one]
EC50 (human AR [2]; [6]): > 10000 nM
AR Agonist CV-1 Cells Efficacy (%) (human AR [2]): na (na = not active (i.e. efficacy of <20 and potency of >10,000))
IC50 (human AR [3]; [7]): 8.2 nM
AR Antagonist CV-1 Cells Efficacy (%) (human AR [3]; CV-1 cells): 37%
